Laboratory results published in ChEMBL document CHEMBL1143910, “Synthesis of guanidino analogues of PMPDAP and their immunobiological activity” (Bioorg Med Chem, 2008).
The source made the active and inactive calls. No cut-off for these calls is given here.

Columns and labels:
[1] = Cytotoxicity against human HeLaS3 cells; assay type: cell-based; details: hela s3
[2] = system: Macrophage; experiment: Increase in IFN-gamma stimulated nitric oxide production in C57BL/6 mouse peritoneal macrophages at 100 uM after 24 hrs; assay type: functional, cell-based
[3] = system: Human immunodeficiency virus 1; experiment: Antiviral activity against HIV1; assay type: functional, organism-based
[4] = system: L929; experiment: Cytotoxicity against mouse L929 cells; assay type: cell-based
[5] = system: L1210; experiment: Cytotoxicity against mouse L1210 cells; assay type: cell-based
[6] = system: Maize streak virus; experiment: Antiviral activity against MSV; assay type: functional
[7] = system: Human immunodeficiency virus 2; experiment: Antiviral activity against HIV2; assay type: functional, organism-based
[8] = system: PBMC; experiment: Activation of MIP1-alpha secretion in human PBMC at 50 uM after 16 hrs by ELISA; assay type: functional, cell-based
[9] = Activation of TNFalpha secretion in C57BL/6 mouse peritoneal macrophages at 100 uM after 16 hrs by ELISA; assay type: functional, cell-based; details: Macrophage
[10] = system: Macrophage; experiment: Increase in IFN-gamma stimulated nitric oxide production in C57BL/6 mouse peritoneal macrophages at 10 to 25 uM after 24 hrs; assay type: functional, cell-based
[11] = system: Macrophage; experiment: Activation of RANTES secretion in C57BL/6 mouse peritoneal macrophages at 100 uM after 16 hrs by ELISA; assay type: functional, cell-based
[12] = system: PBMC; experiment: Activation of RANTES secretion in human PBMC at 50 uM after 16 hrs by ELISA; assay type: functional, cell-based
[13] = system: Macrophage; experiment: Activation of MIP1-alpha secretion in C57BL/6 mouse peritoneal macrophages at 100 uM after 16 hrs by ELISA; assay type: functional, cell-based

Structure (SMILES) | Activity [1] | Activity [2] | Activity [3] | Activity [4] | Activity [5] | Activity [6] | Activity [7] | Activity [8] | Activity [9] | Activity [10] | Activity [11] | Activity [12] | Activity [13]
C[C@@H](Cn1cnc2c(N=C(N)N)ncnc21)OCP(=O)(O)O | Not Active | inactive | inactive | Not Active | Not Active | inactive | inactive | – | – | – | – | – | –
C[C@H](Cn1cnc2c(N)nc(N=C(N)N)nc21)OCP(=O)(O)O | Not Active | inactive | inactive | Not Active | Not Active | inactive | inactive | – | – | – | – | – | –
C[C@H](Cn1cnc2nc(N=C(N)N)ncc21)OCP(=O)(O)O | Not Active | inactive | inactive | Not Active | Not Active | inactive | inactive | – | – | – | – | – | –
C[C@H](Cn1cnc2ncnc(N=C(N)N)c21)OCP(=O)(O)O | Not Active | inactive | inactive | Not Active | Not Active | inactive | inactive | – | – | – | – | – | –
C[C@H](Cn1cnc2c(N=C(N)N)ncnc21)OCP(=O)(O)O | Not Active | inactive | inactive | Not Active | Not Active | inactive | inactive | – | – | – | – | – | –
C[C@@H](Cn1c(N=C(N)N)nc(N)c2ncnc1-2)OCP(=O)(O)O | Not Active | Active | inactive | Not Active | Not Active | inactive | inactive | Active | Active | Active | Active | Active | Active
C[C@H](Cn1cnc2c(N=C(N)N)nc(N)nc21)OCP(=O)(O)O | Not Active | Active | inactive | Not Active | Not Active | inactive | inactive | Active | Active | Active | Active | Active | Active
C[C@@H](Cn1cnc2ncnc(N=C(N)N)c21)OCP(=O)(O)O | Not Active | inactive | inactive | Not Active | Not Active | inactive | inactive | – | – | – | – | – | –
C[C@@H](Cn1cnc2nc(N=C(N)N)ncc21)OCP(=O)(O)O | Not Active | inactive | inactive | Not Active | Not Active | inactive | inactive | – | – | – | – | – | –
C[C@H](Cn1c(N=C(N)N)nc(N)c2ncnc1-2)OCP(=O)(O)O | Not Active | Active | inactive | Not Active | Not Active | inactive | inactive | – | – | – | – | – | –
C[C@@H](Cn1cnc2cnc(N=C(N)N)nc21)OCP(=O)(O)O | Not Active | inactive | inactive | Not Active | Not Active | inactive | inactive | – | – | – | – | – | –
C[C@H](Cn1cnc2cnc(N=C(N)N)nc21)OCP(=O)(O)O | Not Active | inactive | inactive | Not Active | Not Active | inactive | inactive | – | – | – | – | – | –
C[C@@H](Cn1cnc2nc(N)nc(N=C(N)N)c21)OCP(=O)(O)O | Not Active | Active | inactive | Not Active | Not Active | inactive | inactive | – | – | – | – | – | –
C[C@@H](Cn1cnc2c(N)nc(N=C(N)N)nc21)OCP(=O)(O)O | Not Active | inactive | inactive | Not Active | Not Active | inactive | inactive | – | – | – | – | – | –
C[C@H](Cn1cnc2nc(N)nc(N=C(N)N)c21)OCP(=O)(O)O | Not Active | Active | inactive | Not Active | Not Active | inactive | inactive | – | – | – | – | – | –
C[C@@H](Cn1cnc2c(N=C(N)N)nc(N)nc21)OCP(=O)(O)O | Not Active | Active | inactive | Not Active | Not Active | inactive | inactive | – | – | – | – | – | –
